Structures are written as SMILES. “And” between values parts separate entries of the source, which are not always exact repeats. Equal entries are not always repeated. Where only a bound is given, the exact number is not on record here.

This assay has as its target T1, human kinase Mps-1 (Homo sapiens, UniProt P33981).
T1 construct: N-terminally GST-tagged human full length recombinant Mps-1 kinase; GST (N); purchased Invitrogen, Karslruhe, Germany PV4071
T1 sequence (P33981 1-857): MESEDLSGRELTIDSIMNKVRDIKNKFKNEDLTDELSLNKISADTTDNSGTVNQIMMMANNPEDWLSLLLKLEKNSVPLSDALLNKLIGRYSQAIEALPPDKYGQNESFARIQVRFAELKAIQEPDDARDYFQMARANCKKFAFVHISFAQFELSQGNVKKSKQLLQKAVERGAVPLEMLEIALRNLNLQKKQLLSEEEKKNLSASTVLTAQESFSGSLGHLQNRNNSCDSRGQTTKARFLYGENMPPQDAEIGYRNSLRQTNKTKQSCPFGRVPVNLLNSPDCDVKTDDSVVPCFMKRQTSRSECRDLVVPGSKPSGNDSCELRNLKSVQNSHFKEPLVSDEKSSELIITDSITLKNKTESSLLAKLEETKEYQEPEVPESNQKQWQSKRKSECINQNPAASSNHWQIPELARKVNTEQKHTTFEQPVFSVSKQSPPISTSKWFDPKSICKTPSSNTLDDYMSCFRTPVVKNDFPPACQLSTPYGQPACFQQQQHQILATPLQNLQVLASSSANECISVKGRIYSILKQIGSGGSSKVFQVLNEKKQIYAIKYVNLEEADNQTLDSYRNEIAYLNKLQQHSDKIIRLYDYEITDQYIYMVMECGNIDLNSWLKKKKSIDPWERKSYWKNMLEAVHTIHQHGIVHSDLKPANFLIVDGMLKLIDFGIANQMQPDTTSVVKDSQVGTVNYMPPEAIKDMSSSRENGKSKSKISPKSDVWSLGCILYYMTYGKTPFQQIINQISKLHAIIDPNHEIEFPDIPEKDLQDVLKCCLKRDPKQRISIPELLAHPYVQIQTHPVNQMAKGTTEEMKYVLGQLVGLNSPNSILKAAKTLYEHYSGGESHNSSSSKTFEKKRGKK
Kind of assay: Mps-1 kinase assay (TR-FRET). Format: biochemical. To be noted: Mps-1 TR-FRET kinase assay; avg; read-out: Mps1 avg (IC50 [mol/l]). Summed up: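 Inhibition normalised between uninhibited reaction (0%) and enzyme-free wells (100%), using the blank-corrected TR-FRET 665/620 nm ratio after EDTA stop. Reaction: ~0.5 nM GST-Mps-1 full length, 10 μM ATP, 1 μM biotin-peptide, 60 min at 22 °C, after 15 min compound pre-binding, pH 7.7.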
(In general: TR-FRET usually uses a lanthanide donor and a delayed reading to cut background.)
As to `Cc1nsc(Nc2cnc(C(F)(F)F)cn2)c1C(=O)Nc1ccc(OC[C@H]2CCN(CC(F)(F)F)C2)nc1` [Example 404, 3-Methyl-N-(6-{[(3S)-1-(2,2,2-trifluoroethyl)pyrrolidin-3-yl]methoxy}pyridin-3-yl)-5-{[5-(trifluoromethyl)pyrazin-2-yl]amino}-1,2-thiazole-4-carboxamide], the IC50 is greater than 20 µM.
In the case of `Cc1nsc(Nc2ccc(C#N)cn2)c1C(=O)Nc1ccc(OC[C@H]2CCN(CC(F)(F)F)C2)nc1` [Example 405, 5-[(5-Cyanopyridin-2-yl)amino]-3-methyl-N-(6-{[(35)-1-(2,2,2-trifluoroethyl)pyrrolidin-3-yl]methoxy}pyridin-3-yl)-1,2-thiazole-4-carboxamide], the IC50 is greater than 20 µM.
The same measure for `CCN1CCC(Oc2ccc(NC(=O)c3c(C)nsc3Nc3cnc(C(F)(F)F)cn3)cn2)C(F)(F)C1` (stereo not drawn) [Example 406, N-{6-[(1-Ethyl-3,3-difluoropiperidin-4-yl)oxy]pyridin-3-yl}-3-methyl-5-{[5-(trifluoromethyl)pyrazin-2-yl]amino}-1,2-thiazole-4-carboxamide]: greater than 20 µM; for `Cc1nsc(Nc2cnc(C(F)(F)F)cn2)c1C(=O)Nc1ccc(OCCN2CCC(F)(F)CC2)nc1` [Example 407, N-{6-[2-(4,4-Difluoropiperidin-1-yl)ethoxy]pyridin-3-yl}-3-methyl-5-{[5-(trifluoromethyl)pyrazin-2-yl]amino}-1,2-thiazole-4-carboxamide]: greater than 20 µM; for `CCN1CC[C@H](Oc2ccc(NC(=O)c3c(C)nsc3Nc3cnc(C(F)(F)F)cn3)cn2)[C@H](F)C1` [Example 424, N-(6-{[(3R,4S)-1-Ethyl-3-fluoropiperidin-4-yl]oxy}pyridin-3-yl)-3-methyl-5-{[5-(trifluoromethyl)pyrazin-2-yl]amino}-1,2-thiazole-4-carboxamide]: greater than 20 µM.
Take `Cc1nsc(Nc2cnc(C(F)(F)F)cn2)c1C(=O)Nc1ccc(OCCNC(=O)C(F)(F)F)nc1` [Example 425, 3-Methyl-N-(6-{2-[(trifluoroacetyl)amino]ethoxy}pyridin-3-yl)-5-{[5-(trifluoro-methyl)pyrazin-2-yl]amino}-1,2-thiazole-4-carboxamide]: the IC50 was no less than 20 µM.
The figure for `Cc1nsc(Nc2cnc(C(F)(F)F)cn2)c1C(=O)Nc1ccc(F)c(OCCCNC(=O)C(F)(F)F)c1` [Example 427, N-(4-Fluoro-3-{3-[(trifluoroacetyl)amino]propoxy}phenyl)-3-methyl-5-{[5-(trifluoro-methyl)pyrazin-2-yl]amino}-1,2-thiazole-4-carboxamide] is no less than 20 µM; for `Cc1nsc(Nc2cnc(C(F)(F)F)cn2)c1C(=O)Nc1ccc(OCCCNC(=O)C(F)(F)F)nc1` [Example 428, 3-Methyl-N-(6-{3-[(trifluoroacetyl)amino]propoxy}pyridin-3-yl)-5-{[5-(trifluoro-methyl)pyrazin-2-yl]amino}-1,2-thiazole-4-carboxamide] it is greater than 20 µM.
For `Cc1nsc(Nc2cnc(C(F)(F)F)cn2)c1C(=O)Nc1ccc(OCCN(C)C(=O)OC(C)(C)C)nc1` [Example 429, tert-Butyl methyl{2-[(5-{[(3-methyl-5-{[5-(trifluoromethyl)pyrazin-2-yl]amino}-1,2-thiazol-4-yl)carbonyl]amino}pyridin-2-yl)oxy]ethyl}carbannate], the IC50 is greater than 20 µM.
As to `Cc1nsc(Nc2cncc(C(F)(F)F)n2)c1C(=O)Nc1ccc(OCCN(C)C(=O)OC(C)(C)C)nc1` [Example 430, tert-Butyl methyl{2-[(5-{[(3-methyl-5-{[6-(trifluoromethyl)pyrazin-2-yl]amino}-1,2-thiazol-4-yl)carbonyl]amino}pyridin-2-yl)oxy]ethyl}carbannate], the IC50 is greater than 20 µM.
The same measure for `Cc1nsc(Nc2cnc(C(F)(F)F)cn2)c1C(=O)Nc1ccc(OC2CCNCC2)c(F)c1` [Example 431, N-[3-Fluoro-4-(piperidin-4-yloxy)phenyl]-3-methyl-5-{[5-(trifluoromethyl)pyrazin-2-yl]amino}-1,2-thiazole-4-carboxamide]: greater than 20 µM; for `Cc1nsc(Nc2cnc3ccccc3n2)c1C(=O)Nc1cccc(NC(=O)C(F)(F)F)c1` [Example 432, 3-Methyl-5-(quinoxalin-2-ylamino)-N-{3-[(trifluoroacetyl)amino]phenyl}-1,2-thiazole-4-carboxamide]: greater than 20 µM; for `Cc1nsc(Nc2ccc(C#N)cn2)c1C(=O)Nc1ccc(Nc2ccc(F)c(F)c2)nc1` [Example 433, 5-[(5-Cyanopyridin-2-yl)amino]-N-{6-[(3,4-difluorophenyl)amino]pyridin-3-yl}-3-methyl-1,2-thiazole-4-carboxamide]: greater than 20 µM.
As to `Cc1nsc(Nc2cnc3ccccc3n2)c1C(=O)Nc1ccc(NCCN(C)C(=O)OC(C)(C)C)nc1` [Example 434, tert-Butyl methyl(2-{[5-({[3-methyl-5-(quinoxalin-2-ylamino)-1,2-thiazol-4-yl]carbonyl}amino)pyridin-2-yl]amino}ethyl)carbamate], the IC50 was > 20 µM and 19 µM.
The same measure for `CC(=O)Nc1ccc(NC(=O)c2c(C)nsc2Nc2ccc(C#N)cn2)cn1` [Example 435, N-(6-Acetamidopyridin-3-yl)-5-[(5-cyanopyridin-2-yl)amino]-3-methyl-1,2-thiazole-4-carboxamide]: greater than 20 µM.

Source of the values: patent US20170334899A1, “AMINO-SUBSTITUTED ISOTHIAZOLES” (Bayer Pharma Aktiengesellschaft, priority 2014, published 2017).
